melting point | Structure (SMILES)
130 to 132 °C | O=C(O)Cc1cccc2cccnc12
178 to 180 °C | Cc1ccn(-c2ccc(C(=O)O)cc2)n1
221 to 223 °C | COc1ccc2nc(C)c(C(=O)O)cc2c1
132 to 134 °C | CCOC(=O)c1oc2ccc(Br)cc2c1CBr
94 to 96 °C | O=C(O)CCC(=O)c1cccc(F)c1
159 to 161 °C | Nc1cc(-c2cc(Cl)cc(Cl)c2)[nH]n1
125 to 127 °C | CNC(=O)COc1ccc(O)cc1
174 to 176 °C | O=C(O)c1nnn(-c2ccccc2)c1C1CC1
129 to 131 °C | COC(=O)c1ccc(COc2ccc(C=O)cc2OC)cc1
237 to 239 °C | NNc1ncnc2cc(-c3ccc(F)cc3)sc12
169 to 171 °C | O=C(O)c1ccc(F)c(S(=O)(=O)Cc2ncon2)c1
73 to 75 °C | CCCc1ccc(C(=O)COc2ccc(C=O)cc2OC)cc1
176 to 178 °C | O=C(O)/C=C/c1ccc(F)cc1[N+](=O)[O-]
157 to 160 °C | COc1cccc(C(=O)O)c1F
170 to 172 °C | NC(=O)N1CCc2ccccc2C1
128 to 130 °C | O=C(c1ccc(F)cc1)c1ncccn1
142 to 144 °C | CC(N)c1ccc(NC(=O)NC2CC2)cc1 (stereo not given)
226 to 228 °C | CNS(=O)(=O)c1cc(C(=O)O)ccc1Cl
183 to 185 °C | O=C1NC(=O)c2cc(F)ccc21
183 to 185 °C | Cc1ccc2[nH]cc(C(=O)O)c2c1
103 to 105 °C | O=C(CCl)Nc1ccc(Cl)c(Cl)c1
98 to 110 °C | Cc1cc(C(=O)CCl)c(C)n1-c1ccc2c(c1)OCO2
210 to 212 °C | CCCNc1c(N)n(Cc2ccccc2)c(=O)[nH]c1=O
189 to 191 °C | O=C(O)c1ccc(NS(=O)(=O)c2cc(Cl)sc2Cl)cc1

melting point | Structure (SMILES)
89 to 91 °C | CC(C)(O)c1nc2ccccc2s1
249 to 251 °C | Nc1c(C(=O)O)ccnc1Cl
154 to 156 °C | Nc1nc(Sc2ccccc2)ns1
114 to 116 °C | CS(=O)(=O)Nc1ccc(N)cc1
98 to 100 °C | Cc1ccc(NC(=O)CCl)c(Cl)c1
102 to 104 °C | Nc1ccc(S(=O)(=O)C(F)F)cc1
152 to 154 °C | CC(C)(C)c1ccc(Nc2ncccc2C(N)=S)cc1
167 to 169 °C | Cc1cc(Oc2ccccc2)c2cc([N+](=O)[O-])ccc2n1
116 to 118 °C | Clc1cc(CBr)c2ncccc2c1
198 to 200 °C | Cc1ccc(OCc2nc(C(=O)O)cs2)cc1
149 to 151 °C | O=C(O)c1cnn(-c2ncccc2Cl)c1C(F)(F)F
213 to 215 °C | Cn1cc(-c2cccc(C(=O)O)c2)cn1
218 to 220 °C | O=C(CCl)NCC(=O)Nc1ccccc1Br
153 to 155 °C | Cc1ccccc1Nc1nc(Cl)c(C=O)s1
182 to 184 °C | NC(=O)Nc1ccccc1Oc1ccccc1
159 to 161 °C | Nc1ccc(F)c(N(S(=O)(=O)c2ccccc2)S(=O)(=O)c2ccccc2)c1
99 to 101 °C | CN1CCC(C(=O)O)c2ccccc21 (stereo not given)
67 to 69 °C | O=C(c1cc(F)ccc1F)c1ccccc1Cl
80 to 84 °C | Cc1ccc(C)c(C(=O)CCC(=O)O)c1
64 to 66 °C | CC(Oc1ccccc1F)C(=O)NN (stereo not given)
122 to 124 °C | CNC(=O)c1cccc(N)c1
117 to 119 °C | CNCc1nc(-c2ccccc2)c[nH]1
158 to 160 °C | O=C(O)CSc1nc2ccccc2o1
124 to 126 °C | O=Cc1ccc(-c2ccc(C(F)(F)F)cc2)s1

melting point | Structure (SMILES)
224 to 226 °C | O=C(O)C=Cc1ccc(S(=O)(=O)Nc2cccc(C(F)(F)F)c2)cc1
139 to 141 °C | O=Cc1cn(-c2cccc(Cl)c2Cl)nn1
177 to 179 °C | COc1ccccc1-c1nnc(S)n1C
170 to 172 °C | CC1(c2ccccn2)NC(=O)NC1=O (stereo not given)
139 to 141 °C | Cc1ccc(-n2c(C)c(Br)c3c2CCCC3=O)cc1
205 to 207 °C | O=C(O)c1cc(S(=O)(=O)Nc2ccc(F)cc2)ccc1Cl
115 to 117 °C | CCn1c(=O)c(C(=O)CCl)c(N)n(Cc2ccccc2)c1=O
209 to 211 °C | O=Cc1ncc(-c2cccc(Br)c2)[nH]1
206 to 208 °C | O=C1COc2cc(F)ccc2N1
118 to 120 °C | CC(Cl)C(=O)N1c2ccccc2Sc2ccccc21 (stereo not given)
107 to 109 °C | CCCNC(=O)c1ccc(Cl)cc1[N+](=O)[O-]
134 to 136 °C | Nc1nc2c(ccc3ccccc32)s1
94 to 98 °C | O=Cc1ccc(-c2cccc(Cl)c2Cl)o1
157 to 159 °C | O=C(O)CCNC(=O)c1c[nH]c2ccccc12
241 to 243 °C | O=C(COc1ccccc1C(=O)O)Nc1ccc(Br)cc1
118 to 120 °C | CCNc1nc2cc(Cl)ccc2s1
154 to 156 °C | O=C(O)c1cc(S)ccc1Cl
133 to 135 °C | O=C(CCl)Nc1ccc(Br)cc1F
182 to 184 °C | COC(=O)C(Cc1c[nH]c2ccccc12)NC(=O)c1ccc2ccccc2c1 (stereo not given)
199 to 201 °C | CNS(=O)(=O)c1ccc(Sc2ccccc2C(=O)O)cc1
251 to 253 °C | Nc1ccc(-c2cn3cccnc3n2)cc1
331 to 333 °C | O=C(O)CN1C(=O)Cn2c(cc3ccccc32)C1=O
145 to 147 °C | Cc1cccc(C(N)=O)c1N
166 to 168 °C | COc1cccc(N2CC(C(=O)O)CC2=O)c1 (stereo not given)

Further lines, the compound ahead of its results:

Structure (SMILES) | melting point
NC(=O)C1CNCCN1 (stereo not given) | 142 to 144 °C
N#Cc1c(N)cc(N)nc1S | 349 to 351 °C
CC1CN(Cc2ccccc2N)CC(C)O1 (stereo not given) | 93 to 95 °C
COc1ccc(-c2nc(N)sc2C)cc1OC | 185 to 187 °C
O=C1CC(C(=O)O)CC(=O)N1 | 204 to 206 °C
CC(C)NS(=O)(=O)c1ccc(/C=C/C(=O)O)cc1 | 223 to 225 °C
Cn1cc(C#N)cn1 | 59 to 61 °C
CS(=O)(=O)c1ccc(Br)c(S(=O)(=O)Cl)c1 | 160 to 162 °C
CC(C)(C)OC(=O)Nc1cn[nH]c1 | 179 to 181 °C
COc1cc2ncn(CCCC(=O)O)c(=O)c2cc1OC | 198 to 200 °C
Cc1cc([N+](=O)[O-])cc(C)c1S(=O)(=O)Cl | 84 to 86 °C
CCn1nc(C)c(C(=O)O)c1C(F)F | 134 to 136 °C
N#CCCC(=O)c1ccco1 | 80 to 84 °C
CC(=O)c1c(C#N)c2n(c1C)CCC2 | 132 to 134 °C
FC(F)(F)Cc1nc2cc(Br)ccc2[nH]1 | 139 to 141 °C
O=C(O)CCOC1CCOCC1 | 54 to 56 °C
CN1CCN(S(=O)(=O)c2cccnc2NN)CC1 | 109 to 111 °C
COc1cc(C=O)cc(Cl)c1OC | 56 to 58 °C
Cc1[nH]n(C(N)=S)c(=O)c1CCO | 153 to 155 °C
Nc1ccc(-n2cccn2)nc1 | 97 to 99 °C
CC(C)C(C(N)=O)c1cccnc1 (stereo not given) | 176 to 178 °C
COC(=O)c1ccc(I)cn1 | 129 to 131 °C
Cc1nc(C)c(CC(=O)O)c(=O)[nH]1 | 229 to 231 °C
Cc1nn(CCO)c(C(F)F)c1C(=O)O | 148 to 150 °C
CC(O)Cc1cc(F)cc(Br)c1 (stereo not given) | 39 to 41 °C

Structure (SMILES) | melting point
Nc1ccc(I)cc1O | 104 to 106 °C
Cn1cnc(S(=O)(=O)Cl)c1Cl | 54 to 56 °C
O=C(O)c1c[nH]nn1 | 212 to 214 °C
CC1CN(c2ccc(N)cc2C(F)(F)F)CC(C)O1 (stereo not given) | 122 to 124 °C
CC(C)C(Br)C(=O)N1CCOCC1 (stereo not given) | 71 to 73 °C
COc1cc(S(N)(=O)=O)ccc1N | 142 to 144 °C
O=C(O)c1sccc1SC(F)F | 117 to 119 °C
ClCc1ccc(I)cc1 | 49 to 51 °C
CC(C)Nc1cccc(O)c1 | 95 to 97 °C
CC(N)c1ccc(NS(C)(=O)=O)cc1 (stereo not given) | 142 to 144 °C
O=[N+]([O-])c1c[nH]nc1-c1ccncc1 | 216 to 218 °C
Cc1nc(O)nc(O)c1N | 259 to 261 °C
O=C(O)c1nnc(S)[nH]c1=O | 229 to 231 °C
Nc1nc2ccc(S(N)(=O)=O)cc2s1 | 259 to 261 °C
CC(=N\O)/C(C)=N/O | 240 to 241 °C
COCCN(CC(=O)O)C(=O)OC(C)(C)C | 76 to 78 °C
Cc1ocnc1C(=O)O | 127 to 129 °C
CN(C)C(=O)c1cn[nH]c1N | 167 to 169 °C
CCN(CC)S(=O)(=O)CC(=O)O | 59 to 61 °C
CCOc1ccc(NC(N)=S)cc1 | 164 to 166 °C
COc1ncc(C(=O)O)cn1 | 219 to 221 °C
COc1cccc(-c2cc(N)n(CCO)n2)c1 | 148 to 150 °C
CN(C)S(=O)(=O)c1ccc2[nH]c(=O)c(=O)[nH]c2c1 | 319 to 321 °C
COCCNS(=O)(=O)c1ccc(C#N)cc1 | 88 to 90 °C
CC(C)Oc1ccc(C(=O)O)cc1N | 115 to 117 °C

Structure (SMILES) | melting point
CC(=O)c1ccc(CNC(=O)OC(C)(C)C)nc1C | 72 to 74 °C
CC(=O)Nc1ccc(S(=O)(=O)NC(C)C(=O)O)cc1 (stereo not given) | 178 to 180 °C
CC(C)(C)OC(=O)NCCCN | 22 to 24 °C
CC1(O)CCNC1 (stereo not given) | 37 to 39 °C
CCOC(=O)Cc1nnc(S)n1C | 135 to 137 °C
Nc1cnccc1CO | 112 to 114 °C
CC(C)(C)OC(=O)N1CC(O)CC1C(=O)O (stereo not given) | 145 to 147 °C
CC(C)(C)S(=O)(=O)c1ccc(Br)cn1 | 116 to 118 °C
NC(CN1CCC(O)CC1)=NO | 182 to 184 °C
O=S(=O)(CCN1CCNCC1)c1ccc(Br)cc1 | 99 to 101 °C
O=S(=O)(c1ccc(S)nc1)N1CCOCC1 | 71 to 73 °C
Cc1nc2cc(N)ccc2o1 | 72 to 74 °C
Nc1ccc(C(=O)NCCN2CCCC2)cc1 | 137 to 139 °C
CC(C)(C)Cc1cc(N)n[nH]1 | 106 to 108 °C
O=C(O)C1(Br)CCCCC1 | 57 to 59 °C
Cc1sc(=O)n(CC(=O)O)c1C | 186 to 188 °C
COc1ccc(C2(C)NC(=O)NC2=O)cc1OC (stereo not given) | 177 to 179 °C
NC(=O)c1ccc(N2CCSCC2)c(N)c1 | 196 to 198 °C
NNC1=NC(=O)C(=O)N1 | 144 to 146 °C
Cc1c(N)cccc1N1CCOC1=O | 140 to 142 °C
CC(C)n1ccc(C(=O)O)n1 | 77 to 79 °C
C=CCNc1ccc(C(F)(F)F)cc1C#N | 54 to 56 °C
Cc1nn(C)c(Cl)c1Cn1cc(Br)cn1 | 52 to 54 °C
